Results taken from US4138492A, “Aromatic amides of heterocyclic compounds and therapeutic compositions containing same” (priority 1974, dated 1979).
Where a name gives a salt, the structure may show the parent alone. Read-outs that look alike come from different tables or passages of the source.

How the values were obtained:
in vivo = settings: rat, po
[1] = system: apomorphine-induced gnawing; test: Antiapomorphine activity (apomorphine-induced gnawing) in the rat; assay type: in vivo
Excerpt: A number of the compounds of the present invention were screened in parallel with metoclopramide for potential anti-emetic effects against apomorphine-induced gnawing in the rat and as local anaesthetics on the rat sciatic nerve (Table I).
*Antiapomorphine activity in rat scored as […]

[2] = system: electrically induced convulsions; test: Electrically induced convulsions in mice; assay type: in vivo
[3] = Metabolism and pharmacokinetics in the rabbit; assay type: in vivo
writhing syndrome = test: Writhing syndrome induced by intra-peritoneal acetic acid in mice; assay type: in vivo; settings: 300 mg/kg per os
Excerpt: The HCl-Clebopride salt does have antipyretic and analgesic activity.

[4] = Metabolism and pharmacokinetics in the rat; assay type: in vivo
[5] = system: convulsions induced by strychnine; test: Strychnine-induced convulsions in the mouse; assay type: in vivo
oxotremorine [6] = test: Oxotremorine test in mice; settings: mice previously treated with sub-threshold dose of oxotremorine
[7] = system: gastric emptying time in humans; test: Gastric emptying in humans, evaluated by radiologist; assay type: in vivo; parameters: key to effect on gastric emptying: +: no effect; ++: moderate effect; +++: good effect; ++++: maximum effect
Excerpt: The evaluation was based on the subjective opinion of the radiologist in terms of the time required for the appearance of peristaltic waves and their capacity to evacuate. the stomach, according to the following scheme:

[8] = system: spontaneous motor activity; test: Spontaneous motor activity in the mouse
[9] = system: cardiovascular and respiratory systems; test: Cardiovascular and respiratory effects in cats anaesthetized with chloralose; assay type: in vivo
Excerpt: HCl-Clebopride salt has weak effects on the cardiovascular and respiratory systems.

[10] = Therapeutic effect and side effects in humans; assay type: in vivo; settings: suitable doses
Procedure: They may be used in doses of from 0.1 to 1000 mg per day for the treatment of nausea and vomiting due to gastrointestinal disorders, congestive heart failure, post operative conditions, etc., other gastrointestinal tract disorders such as dyspepsia, flatulence, bile regurgitations, hiatus hernia, peptic ulcer, reflux aerophagitis, gastritis, duodenitis and cholethiasis, and as an adjunt to radiography of the gastrointestinal tract and for overcoming gastrointestinal stasis for diagnostic or therapeutic purposes and a variety of conditions affecting the central nervous system such as acute and chronic psychoses, maniacal psychosis, schizophrenias, serious disturbances of behavior and non-melancholic depressive state and migraine.
A number of the instant compounds, particularly the hydrogen chloride, malate and methanesulfonate salts of Clebopride have been extensively tested in humans to determine maximum dosages and the therapeutic effects of the compounds. These compounds have been administered to humans orally and parenterally.
Dosages of between 0.1 and 30 mg per day have been shown useful depending upon the length of treatment and therapeutic effect desired.

[11] = system: apomorphine-induced vomiting; test: Apomorphine-induced vomiting in the dog; assay type: in vivo; settings: for ED50: Canis lupus familiaris, po, per os, Table II, read-out: ED50 (95% confidence limits), apomorphine induced vomiting
autonomic nervous system = test: Effect on the autonomic nervous system; settings: in vivo
[12] = system: convulsions induced by leptazol; test: Leptazol-induced convulsions in the mouse; assay type: in vivo
inflammation = test: Anti-inflammatory activity; settings: in vivo
gastric emptying = test: Decrease of gastric emptying time in rats; assay type: in vivo, rat; settings: compared with metoclopramide
[13] = Local anaesthetic activity in mice; assay type: in vivo; settings: compared with metoclopramide or procaine
incoordination [14] = test: Incoordination on accelerating rota-rod in the mouse
parasympathetic system = test: Parasympatholytic activity; settings: in vivo
[15] = system: spontaneous motor activity; settings: mouse, in vivo
incoordination [16] = settings: mouse, in vivo
oxotremorine [17] = settings: mouse, in vivo
[18] = Pharmacokinetics after oral administration of high doses of the malate salt; assay type: in vivo
healthy male volunteers = test: Acute tolerance following intramuscular and intravenous administration in humans; assay type: in vivo
Procedure: Another study has been made to investigate the acute tolerance of the malate salt of Clebopride following intramuscular and intravenous administration in humans.
The subjects used were healthy male volunteers between 20 and 24 years of age and were divided into 8 groups and dosed with the test compound according to the following scheme:
Group I: 1 mg intramuscular per day for 5 days
Group II: 1.5 mgs intrasmuscular per day for 5 days
Group III: 2 mgs intramuscular per day for 5 days
Group IV: 0.25 mg intravenously per day for 5 days
Group V: 0.50 mg intravenously per day for 5 days
Group VI: 1 mg intravenously per day for 5 days
Group VII: 1.5 mgs intravenously per day for 5 days
Group VIII: 2 mgs intravenously per day for 5 days
The parameters evaluated were subjective symptoms; psychic disturbances; neurological disturbances; autonomic symptoms; digestive disturbances; urogenital disturbances; skin and mucous membranes; pulse; blood pressure; temperature; other side effects; blood analysis--leucocytes formula, hemoglobin content, erythrocyte sedimentation rate, glucose, cholesterol, urea, hepatic function tests, transaminasas; and urine analysis--density, albumin, sediment.

[19] = Rattus norvegicus, po; rats; per os; Table III; read-out: Antiapomorphine Activity, Rats, ED50 (95% confidence limits)
[20] = 2 mg, compared with 20 mg of metoclopramide
[21] = cats, slow intravenous infusion 1 mg/kg/min. to total 10 mg/kg
[22] = Rattus norvegicus, po; per os; Table I; read-out: ED50 Values

For `CN(C)CCCN1c2ccccc2Sc2ccc(Cl)cc21` [Chlorpromazine, reference compound], the TD50 (in vivo) was 12.3 mg/kg, the ED50 ([1]; Rattus norvegicus, po, read-out: Antiapomorphine Activity, Rats, ED50 (95% confidence limits)) was 7.95 mg/kg and the minimal effective dose ([1]; Rattus norvegicus, read-out: Antiapomorphine in rat) was 6.25 mg/kg.
In the case of `COc1cc(N)c(Cl)cc1C(=O)NC1CCN(Cc2ccccc2)CC1` [Clebopride, N-[4'-(1'-benzyl)-piperidyl]-2-methoxy-4-amino-5-chloro-benzamide], the “potency in preventing electrically induced convulsions” value ([2]; mice) is reported as “somewhat more potent than metoclopramide”, the catatonia (catatonia in rats; rat, in words) is reported as “noted in the rat” and the “antiemetic doses compared with those causing catatonia” value (catatonia in rats; rats, Table III) is reported as “exhibits antiemetic activity (anti-apomorphine activity) at doses which are far removed from those causing catatonia”. The TD50 (in vivo) was 47.6 mg/kg, the “pharmacokinetics after intravenous administration” value ([3]; intravenous) was “follows a similar pattern in both species” and the “inhibition of writhing syndrome” value (writhing syndrome) was “almost completely inhibited the writhing syndrome”. For the same compound, the “pharmacokinetics after intravenous administration” value ([4]; intravenous) was “follows a similar pattern in both species”, the “inhibition of convulsions induced by strychnine” value [5] was “neither Clebopride nor metoclopramide appear to inhibit convulsions induced by strychnine” and the salivation and tremors (oxotremorine [6]) was “capable of causing salivation and tremors”. The ED50 [1, 19] was 1.85 mg/kg, the “No. of Patients with + (no effect)” value ([7]; 0.2 mg by mouth, 6 patients) was 0 and the “No. of Patients with ++ (moderate effect)” value ([7]; 0.2 mg by mouth, 6 patients) was 0. For the same compound, the “No. of Patients with +++ (good effect)” value ([7]; 0.2 mg by mouth, 6 patients) was 6, the “No. of Patients with ++++ (maximum effect)” value (from here on “No. of Patients with ++++”) ([7]; 0.2 mg by mouth, 6 patients) was 0 and the “contraction of the stomach” value ([7]; 0.2 mg, compared with 20 mgs of metoclopramide) was “as rapid and forceful contraction of the stomach as 20 mgs of metoclopramide”. For the same compound, the “No. of Patients with + (no effect)” value ([7]; 1 mg by mouth, 6 patients) was 1, the “No. of Patients with ++ (moderate effect)” value ([7]; 1 mg by mouth, 6 patients) was 2 and the “No. of Patients with +++ (good effect)” value ([7]; 1 mg by mouth, 6 patients) was 3. For the same compound, the “No. of Patients with ++++” value ([7]; 1 mg by mouth, 6 patients) was 0, the “No. of Patients with + (no effect)” value ([7]; 2 mg by mouth, 8 patients) was 0 and the “No. of Patients with ++ (moderate effect)” value ([7]; 2 mg by mouth, 8 patients) was 2. The “No. of Patients with +++ (good effect)” value ([7]; 2 mg by mouth, 8 patients) was 3, the “No. of Patients with ++++” value ([7]; 2 mg by mouth, 8 patients) was 3 and the “contraction of the stomach” value [7, 20] was “more forceful contraction than 20 mg of metoclopramide”. The onset of action [7, 20] was “more rapid onset of action”, the “No. of Patients with + (no effect)” value ([7]; 5 mg by mouth, 9 patients) was 0 and the “No. of Patients with ++ (moderate effect)” value ([7]; 5 mg by mouth, 9 patients) was 2. The “No. of Patients with +++ (good effect)” value ([7]; 5 mg by mouth, 9 patients) was 0 and the “No. of Patients with ++++” value ([7]; 5 mg by mouth, 9 patients) was 7.
For `COc1cc(N)c(Cl)cc1C(=O)NC1CCN(Cc2ccccc2)CC1` [Compound 2, N-[4'-(1'-benzyl)-piperidyl]-2-methoxy-4-amino-5-chloro-benzamide], the spontaneous motor activity [8] was “inhibit spontaneous motor activity”, the anti-convulsant activity ([2]; mouse, in vivo) was “has anti-convulsant activity” and the blood pressure [9, 21] was “slight fall”. The heart rate [9, 21] was “slight fall”, the respiratory movements [9, 21] was “slowing of respiratory movements” and the “effects on the cardiovascular and respiratory systems” value ([9]; in vivo) was “weak effects”. For the same compound, the side effects [10] was “virtually free of side effects”, the “activity against apomorphine-induced vomiting” value [11] was “high activity” and the ED50 [11] was 0.0435 mg/kg. For the same compound, the “potency relative to metoclopramide” value ([11]; oral route) was “approximately 8 times”, the “effect on the autonomic nervous system” value (autonomic nervous system) was “does not have an appreciable effect” and the “inhibition of clonic seizures induced by leptazol” value [12] was “apparently not clonic seizures”. The “inhibition of tonic convulsions (antileptazol)” value [12] was “inhibits tonic convulsions”, the anti-inflammatory activity (inflammation) was “weak anti-inflammatory activity” and the N-Debenzylation [3] was “major metabolic reaction”. For the same compound, the “cleavage of the amide bond” value [3] was “does not appear to be a major matabolic reaction”, the “conjugation with glucuronic acid and/or sulphate” value [3] was “occurs at a large extent in the rabbit” and the extent of metabolism [3] was “extensively metabolized”. For the same compound, the “unchanged drug excreted in the urine” value [3] was “Only very little”, the N-Debenzylation [4] was “major metabolic reaction” and the “cleavage of the amide bond” value [4] was “does not appear to be a major matabolic reaction”. The extent of metabolism [4] was “extensively metabolized”, the “unchanged drug excreted in the urine” value [4] was “Only very little” and the “ability to decrease gastric emptying time, potency” value (gastric emptying) was “potency similar to that of metoclopramide”. The local anaesthetic potency [13] was “somewhat greater than that of either metoclopramide or procaine”, the ED50 [1, 22] was about 3 mg/kg and the “activity as an anti-emetic” value ([1]; compared with metoclopramide; from Table I) was “more active as an anti-emetic”. For the same compound, the incoordination (incoordination [14]) was “cause incoordination” and the parasympatholytic activity (parasympathetic system) was “no appreciable parasympatholytic activity”.
In the case of `CCN(CC)CCNC(=O)c1cc(Cl)c(N)cc1OC` [Metoclopramide, reference compound], the spontaneous motor activity [15] is reported as “inhibit spontaneous motor activity”, the “antiemetic doses compared with those causing catatonia” value (catatonia in rats; rat, in vivo) is reported as “at doses which are far removed from those causing catatonia” and the TD50 (in vivo) is reported as 93 mg/kg. For the same compound, the ED50 [11] was 0.343 mg/kg, the “inhibition of convulsions induced by strychnine” value [5] was “neither Clebopride nor metoclopramide appear to inhibit convulsions induced by strychnine” and the incoordination (incoordination [16]) was “cause incoordination”. The salivation and tremors (oxotremorine [17]) was “capable of causing salivation and tremors”, the ED50 [1, 22] was about 6 mg/kg and the ED50 [1, 19] was 11.8 mg/kg. The minimal effective dose ([1]; Rattus norvegicus; read-out: Antiapomorphine in rat) was 12.5 mg/kg and the “effect on gastric emptying” value ([7]; 10-20 mgs, as a guide) was “+++”.
For `COc1cc(N)c(Cl)cc1C(=O)NC1CCN(Cc2ccccc2)CC1` [malate salt of Clebopride, N-[4'-(1'-benzyl)piperidyl]-2-methoxy-4-amino-5-chlorobenzamide malate], the absorption ([18]; high doses) was “good absorption”, the “appearance of metabolites in blood” value ([18]; high doses) was “rapid appearance of metabolites in blood” and the peak levels ([18]; high doses) was “rapidly appearing peak levels”. For the same compound, the plasma concentrations ([18]; high doses) was “relatively low plasma concentrations”, the “first pass metabolism and/or uptake in the liver” value ([18]; suggested) was “extensive first pass metabolism and/or uptake take place in the liver” and the side effects (healthy male volunteers; Group I: 1 mg intramuscular per day for 5 days, four subjects) was “one case of slight sleepiness was noted from the second day of treatment”. The side effects (healthy male volunteers; Group II: 1.5 mgs intramuscular per day for 5 days, four subjects) was “Tiredness, sleepiness and fatigue in three of the four subjects in Group II accompanied with slight depression”, the side effects (healthy male volunteers; Group III: 2 mgs intramuscular per day for 5 days, four subjects) was “Three of the four subjects in Group III showed sleepiness, fatigue and depression followed by euphoria” and the “blood and urine analysis” value (healthy male volunteers; Groups II and VII) was “no significant variations”. The “dose dependence of side effects” value (healthy male volunteers; Groups IV to VIII, intravenous) was “not to be dose dependent”, the side effects (healthy male volunteers; Groups IV to VIII: 0.25 to 2 mgs intravenously per day for 5 days) was “Sleepiness, fatigue and depression of medium intensity were seen in many patients” and the additional side effects (healthy male volunteers; Groups VII and VIII: 1.5 and 2 mgs intravenously per day for 5 days) was “some degree of sweating, hypersalivation and dryness of the mouth were variously seen”.
